{"source": "patent US10550117B2", "about": "“2-azabicyclo[3.1.0]hexan-3-one derivatives and methods of use” (Genentech, Inc., priority 2016, dated 2020)", "key": {"[1]": {"test_system": "REL-A (p65) nuclear translocation in HUVEC", "test": "REL-A HUVEC nuclear translocation assay (TNF-α stimulated, high content imaging)", "type": "cell-based", "settings": "Homo sapiens, 2 ng/mL TNF-α", "protocol": "(§1) (2) A second set of cell assays used primary human umbilical vein cells (HUVEC) sourced from Lonza to define the selectivity of NIK inhibitors toward inhibition of classical vs. non-classical NF-kB signaling using high content cellular imaging. For the p52 (non-classical NF-kB signaling) nuclear translocation assay, HUVEC were treated with different concentrations of compounds (0.2% DMSO final) in EBM-2 medium (LONZA) containing 2% fetal bovine serum and then stimulated with 300 ng/mL of an anti-lymphotoxin beta receptor antibody (R&D Systems) for 4.5 hours. In the REL-A nuclear translocation assay, HUVEC were incubated with compounds (0.2% DMSO final) for 4 hours 50 minutes in EBM-2 medium containing 2% fetal bovine serum before stimulating them with 2 ng/mL tumor necrosis factor (TNF)-α (R&D Systems) for 10 minutes. Cells were fixed with 4% paraformaldehyde, permeabilized by adding 0.1% Triton X-100 in phosphate buffered saline, and then were incubated with either 2 μg/mL anti-p52 antibody (Millipore) or 400 ng/mL anti-REL-A (p65) antibody (Santa Cruz Biotechnology). Finally, the cells were incubated with an Alexa488-labeled secondary antibody (Invitrogen) and DRAQ5 DNA stain (Biostatus). Imaging was carried out using an Opera reader (Perkin Elmer) and data were analyzed with the aid of Acapella software (Perkin Elmer). The p52 or REL-A translocation into the nucleus was quantified by the ratio of the nuclear to cytoplasmic signal intensity."}, "[2]": {"test_system": "REL-A (p65) nuclear translocation in HeLa cells", "test": "REL-A HeLa nuclear translocation assay (TNF-α stimulated, high content imaging)", "type": "cell-based", "settings": "Homo sapiens, 10 ng/mL TNF-α", "protocol": "(§2) (3) A third set of cell assays are used to define the selectivity of NIK inhibitors toward inhibition of classical vs. non-classical NF-kB signaling and rely on quantification of the nuclear translocation of p52 (NF-kB2) and REL-A (p65) using high content cellular imaging. For the p52 (non-classical NF-kB signaling) nuclear translocation assay, HeLa cells are treated with different concentrations of compounds (0.2% DMSO final) in medium containing 10% fetal bovine serum and then stimulated with 100 ng/mL of an anti-lymphotoxin beta receptor antibody (R&D Systems) for 5 hours. In the REL-A nuclear translocation assay, HeLa cells are incubated with compounds (0.2% DMSO final) for 4.5 hours in medium containing 10% fetal bovine serum before stimulating them with 10 ng/mL tumor necrosis factor (TNF)-α (R&D Systems) for 30 minutes. Cells are fixed with 4% paraformaldehyde, permeabilized by adding 0.1% Triton X-100 in phosphate buffered saline, and then are incubated with either 2 μg/mL anti-p52 antibody (Millipore) or 400 ng/mL anti-REL-A (p65) antibody (Santa Cruz Biotechnology). Finally, the cells are incubated with an Alexa488-labeled secondary antibody (Invitrogen) and DRAQ5 DNA stain (Biostatus). Imaging is carried out using an Opera reader (Perkin Elmer) and data are analyzed with the aid of Acapella software (Perkin Elmer). The p52 or REL-A translocation into the nucleus is quantified by the ratio of the nuclear to cytoplasmic signal intensity. […] The test compounds have the corresponding inhibitory values (IC50) for NIK REL-A (p65) and p52 Translocation Assays as set forth in Table B2."}, "[3]": {"test_system": "p52 (NF-kB2) nuclear translocation in HeLa cells", "test": "p52 HeLa nuclear translocation assay (anti-lymphotoxin beta receptor antibody stimulated)", "type": "cell-based", "settings": "Homo sapiens, 100 ng/mL anti-lymphotoxin beta receptor antibody", "protocol": "as §2"}, "[4]": {"test_system": "p52 (non-classical NF-kB signaling) nuclear translocation in HUVEC", "test": "p52 HUVEC nuclear translocation assay (anti-lymphotoxin beta receptor antibody stimulated)", "type": "cell-based", "settings": "Homo sapiens, 300 ng/mL anti-lymphotoxin beta receptor antibody", "protocol": "as §1"}, "[5]": {"test": "Liver microsome stability", "type": "in vitro ADME", "settings": "for HLM CL (human liver microsome clearance): human liver microsomes; for stability in human liver microsomes versus the corresponding pyrrolidinone comparator compound: qualitative comparison", "protocol": "Metabolic stability assays in liver microsomes are conducted with pooled female CD-1 mouse, male Sprague-Dawley rat, male beagle dog, male cynomolgus monkey, and mixed male and female human liver microsomal incubations. The general assay conditions are as follows. Incubation mixtures consisted of liver microsomes (0.5 mg of microsomal protein/ml) and the test compound (1.0 μM) with or without NADPH (1.0 mM) in the potassium phosphate buffer (100 mM; pH 7.4) with a final incubation volume of 0.25 ml. Reactions are initiated by the addition of NADPH or buffer and shaken in a water bath open to the air at 37° C. At times 0, 20, 40, and 60 min, aliquots (50 μl) are removed and added to termination mixtures (100 μl) containing acetonitrile and an internal standard. The samples are then centrifuged for 10 min at 2000 g. The supernatant (90 μl) is removed, combined with 180 μl of water, and analyzed by LC-MS/MS.\nMetabolic stability of the test compounds were evaluated in human liver microsomes following known protocols described in Halladay, et al. Drug Metabol. Lett. 2007, 1:67-72."}, "Hepatocyte stability": {"test": "Hepatocyte stability", "type": "in vitro ADME", "settings": "human hepatocytes; for stability in the human hepatocyte assay versus the corresponding pyrrolidinone comparator compound: qualitative comparison", "protocol": "General. Metabolic stability assays in hepatocytes are conducted using cryopreserved pooled female CD-1 mouse, male Sprague-Dawley rat, male beagle dog, male cynomolgus monkey, and mixed male and female human hepatocytes (CellzDirect). Vials of hepatocytes are thawed rapidly in a water bath set at 37° C. and then are diluted with Dulbecco's modified Eagle's medium (DMEM), pH 7.4. Cells are isolated by centrifugation, pooled, and resuspended in DMEM at 1.0 million viable cells/ml. Membrane integrity of the cells is assessed by trypan blue exclusion. The test compound is dissolved in dimethyl sulfoxide at a final concentration of 10 mM. This test compound stock is diluted further to 2 μM in DMEM (125 μl) before the addition of an equal volume of the 10^6 cells/ml cell suspension. The test compound (final incubation concentration of 1.0 μM with 0.1% dimethyl sulfoxide) and cells (final concentration of 0.5×10^6 cells/ml) are incubated at 37° C. in a 95% air/5% CO2 atmosphere for 3 h. Aliquots (50 μl) are removed at 0, 1, 2, and 3 hours and added to termination mixtures (100 μl) containing acetonitrile and an internal standard. The samples are then centrifuged for 10 min at 2000 g. The supernatant (90 μl) is removed, combined with 180 μl of water, and analyzed by LC-MS/MS.\nMetabolic stability of the test compounds were evaluated also in human hepatocytes, following protocols described in Hallifax, et al. Drug Metabol. Disposition, 2005, 33:1852-1858."}, "[6]": {"molecular_target": "nuclear factor-kappa B (NF-kB)-inducing kinase (NIK) (Homo sapiens (Human), UniProt Q99558)", "sequence (Q99558 whole entry)": "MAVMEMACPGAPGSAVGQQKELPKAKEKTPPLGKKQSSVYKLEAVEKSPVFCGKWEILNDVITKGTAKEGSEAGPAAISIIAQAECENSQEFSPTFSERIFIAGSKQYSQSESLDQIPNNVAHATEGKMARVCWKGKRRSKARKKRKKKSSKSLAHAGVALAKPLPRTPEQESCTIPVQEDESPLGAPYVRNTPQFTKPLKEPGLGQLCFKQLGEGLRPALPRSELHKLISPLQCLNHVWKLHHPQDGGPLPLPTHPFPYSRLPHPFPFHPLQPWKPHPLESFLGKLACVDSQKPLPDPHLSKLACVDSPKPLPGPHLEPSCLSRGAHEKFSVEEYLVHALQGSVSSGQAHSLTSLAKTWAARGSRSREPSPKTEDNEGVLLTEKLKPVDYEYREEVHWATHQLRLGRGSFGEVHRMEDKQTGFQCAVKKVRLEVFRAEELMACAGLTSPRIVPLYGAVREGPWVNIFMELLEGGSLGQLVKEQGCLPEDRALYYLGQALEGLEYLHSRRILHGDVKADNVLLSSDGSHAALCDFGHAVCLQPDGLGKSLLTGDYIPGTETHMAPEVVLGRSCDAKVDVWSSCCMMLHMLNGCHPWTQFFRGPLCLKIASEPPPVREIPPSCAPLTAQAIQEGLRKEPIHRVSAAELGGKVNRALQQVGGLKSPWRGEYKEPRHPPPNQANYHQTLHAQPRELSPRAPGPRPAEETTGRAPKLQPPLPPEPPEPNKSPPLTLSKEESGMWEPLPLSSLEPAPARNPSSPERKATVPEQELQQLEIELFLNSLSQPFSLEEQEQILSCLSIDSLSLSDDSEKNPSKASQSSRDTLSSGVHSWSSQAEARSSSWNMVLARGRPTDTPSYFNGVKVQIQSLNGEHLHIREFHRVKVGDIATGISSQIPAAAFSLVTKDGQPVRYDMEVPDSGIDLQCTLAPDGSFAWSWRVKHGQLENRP", "test": "NIK enzyme inhibition assay (Transcreener ADP fluorescence polarization)", "type": "biochemical", "settings": "for Ki: purified NIK 0.5 nM, 10 μM ATP, Morrison equation, read-out: NIK ADP-FP Ki; for NIK enzyme inhibition, potency in words relative to the other stereoisomers: stereoisomers separated by chiral SFC, qualitative", "protocol": "The ability of the nuclear factor-kappa B (NF-kB)-inducing kinase (NIK) to catalyze the hydrolysis of adenosine-5′-triphosphate (ATP) was monitored using the Transcreener ADP (adenosine-5′-diphosphate) assay (BellBrook Labs). […] Reactions were quenched by the addition of 20 mM 2,2′,2″,2′″-(ethane-1,2-diyldinitrilo)tetraacetic acid and 0.01% Brij 35. The tracer bound to the antibody was displaced by the ADP generated during the NIK reaction, which causes a decrease in fluorescence polarization that was measured by laser excitation at 633 nm with a Fluorescence Correlation Spectroscopy Plus reader (Evotec AG). Equilibrium dissociation constant (Ki) values for NIK inhibitors are calculated from plots of activity vs. inhibitor concentration using Morrison's quadratic equation that accounts for the potential of tight binding, and by also applying the conversion factor that accounted for competitive inhibition and the concentration of substrate used in the assay relative to its Michaelis constant (Km)."}}, "data": [{"smiles": "CN1CC[C@@](O)(C#Cc2cccc(-c3nc(C(N)=O)n4ccccc34)c2)C1=O", "note": "[Compound C-3]", "values": [{"measurement": "IC50", "setting": "[1]", "result": "> 5000", "unit": "nM"}, {"measurement": "IC50", "setting": "[2]", "result": "> 20000", "unit": "nM"}, {"measurement": "IC50", "setting": "[3]", "result": 29.8, "unit": "nM"}]}, {"smiles": "CN1C(=O)[C@](O)(C#Cc2cccc(-c3nc(C(N)=O)n4ccccc34)c2)[C@H]2C[C@H]21", "note": "[Compound 3]", "values": [{"measurement": "IC50", "setting": "[1]", "result": "> 5000", "unit": "nM"}, {"measurement": "IC50", "setting": "[4]", "result": 25, "unit": "nM"}, {"measurement": "HLM CL (human liver microsome clearance)", "setting": "[5]", "result": 11, "unit": "mL/min/kg"}, {"measurement": "stability in human liver microsomes versus the corresponding pyrrolidinone comparator compound", "setting": "[5]", "result": "better stability"}, {"measurement": "Hep CL (human hepatocyte clearance)", "setting": "Hepatocyte stability", "result": 9.0, "unit": "mL/min/kg"}, {"measurement": "stability in the human hepatocyte assay versus the corresponding pyrrolidinone comparator compound", "setting": "Hepatocyte stability", "result": "better stability"}]}, {"smiles": "CN1C(=O)[C@](O)(C#Cc2cccc(-n3nc(C(N)=O)c4cccnc43)c2)[C@@H]2C[C@@H]21", "note": "[Compound 2, 1-(3-(((1S,4R,5R)-4-hydroxy-2-methyl-3-oxo-2-azabicyclo[3.1.0]hexan-4-yl)ethynyl)phenyl)-1H-pyrazolo[3,4-b]pyridine-3-carboxamide]", "values": [{"measurement": "Ki", "setting": "[6]", "result": 4.3, "unit": "nM"}, {"measurement": "NIK enzyme inhibition, potency in words relative to the other stereoisomers", "setting": "[6]", "result": "second most potent NIK enzyme inhibitor among the 4 stereoisomers"}, {"measurement": "IC50", "setting": "[1]", "result": "> 5000", "unit": "nM"}, {"measurement": "IC50", "setting": "[4]", "result": 280, "unit": "nM"}, {"measurement": "HLM CL (human liver microsome clearance)", "setting": "[5]", "result": 7.7, "unit": "mL/min/kg"}, {"measurement": "Hep CL (human hepatocyte clearance)", "setting": "Hepatocyte stability", "result": 13, "unit": "mL/min/kg"}]}, {"smiles": "CN1C(=O)[C@](O)(C#Cc2cccc(-c3nc(C(N)=O)c4ccccn34)c2)[C@H]2C[C@H]21", "note": "[Compound 5, 3-(3-(((1R,4R,5S)-4-hydroxy-2-methyl-3-oxo-2-azabicyclo[3.1.0]hexan-4-yl)ethynyl)phenyl)imidazo[1,5-a]pyridine-1-carboxamide]", "values": [{"measurement": "Ki", "setting": "[6]", "result": 4.7, "unit": "nM"}, {"measurement": "NIK enzyme inhibition, potency in words relative to the other stereoisomers", "setting": "[6]", "result": "most potent NIK enzyme inhibitor among the 4 stereoisomers"}, {"measurement": "IC50", "setting": "[1]", "result": "> 5000", "unit": "nM"}, {"measurement": "IC50", "setting": "[4]", "result": 3000, "unit": "nM"}, {"measurement": "HLM CL (human liver microsome clearance)", "setting": "[5]", "result": 3.5, "unit": "mL/min/kg"}, {"measurement": "stability in human liver microsomes versus the corresponding pyrrolidinone comparator compound", "setting": "[5]", "result": "better stability"}, {"measurement": "Hep CL (human hepatocyte clearance)", "setting": "Hepatocyte stability", "result": 1.6, "unit": "mL/min/kg"}, {"measurement": "stability in the human hepatocyte assay versus the corresponding pyrrolidinone comparator compound", "setting": "Hepatocyte stability", "result": "better stability"}]}, {"smiles": "COc1ccn2c(C(N)=O)nc(-c3cccc(C#C[C@]4(O)CCN(C)C4=O)c3)c2c1", "note": "[Compound C-4, reference compound]", "values": [{"measurement": "IC50", "setting": "[1]", "result": "> 5000", "unit": "nM"}, {"measurement": "IC50", "setting": "[2]", "result": "> 1000", "unit": "nM"}, {"measurement": "IC50", "setting": "[3]", "result": 6.6, "unit": "nM"}, {"measurement": "HLM CL (human liver microsome clearance)", "setting": "[5]", "result": 15, "unit": "mL/min/kg"}, {"measurement": "Hep CL (human hepatocyte clearance)", "setting": "Hepatocyte stability", "result": 9.9, "unit": "mL/min/kg"}]}, {"smiles": "CN1C(=O)[C@](O)(C#Cc2cccc(-n3nc(C(N)=O)c4cccnc43)c2)[C@H]2C[C@H]21", "note": "[Compound 1, 1-(3-(((1R,4R,5S)-4-hydroxy-2-methyl-3-oxo-2-azabicyclo[3.1.0]hexan-4-yl)ethynyl)phenyl)-1H-pyrazolo[3,4-b]pyridine-3-carboxamide]", "values": [{"measurement": "Ki", "setting": "[6]", "result": 0.88, "unit": "nM"}, {"measurement": "NIK enzyme inhibition, potency in words relative to the other stereoisomers", "setting": "[6]", "result": "most potent NIK enzyme inhibitor among the 4 stereoisomers"}, {"measurement": "IC50", "setting": "[1]", "result": "> 5000", "unit": "nM"}, {"measurement": "IC50", "setting": "[4]", "result": 55, "unit": "nM"}, {"measurement": "HLM CL (human liver microsome clearance)", "setting": "[5]", "result": 5.8, "unit": "mL/min/kg"}, {"measurement": "stability in human liver microsomes versus the corresponding pyrrolidinone comparator compound", "setting": "[5]", "result": "better stability"}, {"measurement": "Hep CL (human hepatocyte clearance)", "setting": "Hepatocyte stability", "result": 0.8, "unit": "mL/min/kg"}, {"measurement": "stability in the human hepatocyte assay versus the corresponding pyrrolidinone comparator compound", "setting": "Hepatocyte stability", "result": "better stability"}]}]}
